Test results reported in ChEMBL document CHEMBL1221336, “Xanthones with neuraminidase inhibitory activity from the seedcases of Garcinia mangostana” (Bioorg Med Chem, 2010).

What was measured:
[1] = target: T1, Sialidase (Clostridium perfringens, UniProt P10481); assay: Competitive inhibition of Clostridium perfringens neuraminidase by fluorimetry
T1 sequence (P10481 whole entry): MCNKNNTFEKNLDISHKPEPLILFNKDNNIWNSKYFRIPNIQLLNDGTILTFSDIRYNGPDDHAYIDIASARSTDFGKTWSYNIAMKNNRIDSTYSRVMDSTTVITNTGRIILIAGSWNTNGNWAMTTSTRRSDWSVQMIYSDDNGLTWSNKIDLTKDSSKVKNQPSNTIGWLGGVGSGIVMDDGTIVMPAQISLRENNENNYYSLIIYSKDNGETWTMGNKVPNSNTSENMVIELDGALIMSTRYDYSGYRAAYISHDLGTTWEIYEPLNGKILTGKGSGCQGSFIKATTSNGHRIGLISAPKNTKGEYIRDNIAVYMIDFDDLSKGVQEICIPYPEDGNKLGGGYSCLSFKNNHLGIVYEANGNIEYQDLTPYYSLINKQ

[2] = target: T2, Sialidase (Clostridium perfringens) (UniProt P10481); assay: Inhibition of Clostridium perfringens neuraminidase at 1.56 uM by fluorimetry; settings: TDE = time-dependent effect
T2 sequence (whole entry): T1 sequence (P10481 whole entry)

[3] = target: T1, Sialidase; assay: Inhibition of Clostridium perfringens neuraminidase by fluorimetry; settings: for Ki: read-out: Ki(app)

| SMILES | Ki [1] [µM] | inhibition [2] | IC50 [3] [µM] | Ki [3] [µM] |
| --- | --- | --- | --- | --- |
| CC(C)=CCC/C(C)=C/Cc1c(O)cc2oc3c(O)ccc(O)c3c(=O)c2c1O [SMEATHXANTHONE A] | 0.15 | tde | 0.27 | 0.0447 |
| C=C(C)C1Cc2c(cc3oc4cc(O)c(OC)c(CC=C(C)C)c4c(=O)c3c2O)O1 (stereo unspecified) [MANGOSTENONE F] | 7.6 | – | 24.8 | – |
| COc1c(O)cc2oc3cc(O)c(CC=C(C)C)c(O)c3c(=O)c2c1CC=C(C)C [MANGOSTIN] | 5.8 | – | 12.2 | – |
| CC(C)=CCc1c(O)c(CC=C(C)C)c2oc3c(O)cccc3c(=O)c2c1O [8-DEOXYGARTANIN] | 15.5 | – | 29.2 | – |
| O=c1c(O)c(-c2ccc(O)c(O)c2)oc2cc(O)cc(O)c12 [QUERCETIN] | – | – | 9.8 | – |
| COc1cc2oc3c(O)cccc3c(=O)c2c(O)c1CC=C(C)C [CUDRAXANTHONE] | 35.2 | – | 65.7 | – |
| COc1cc2oc3cc(O)c(OC)c(CC=C(C)C)c3c(=O)c2c(O)c1CC=C(C)C | 24.9 | – | 60.7 | – |
| COc1c(O)cc2oc3cc4c(c(O)c3c(=O)c2c1CC=C(C)C)C=CC(C)(C)O4 [MANGOSTANIN] | 5.9 | – | 20.1 | – |
| COc1c(O)cc2oc3cc(O)c(CC=C(C)C)c(O)c3c(=O)c2c1CCC(C)(C)O [GARCINONE D] | 3.3 | – | 5.7 | – |
| CC(C)=CCc1c(O)cc2oc3cc(O)c(O)c(CC=C(C)C)c3c(=O)c2c1O | 0.8 | tde | 2.2 | 7.41 |
| C=C(C)C1Cc2c(c(O)cc3oc4cc(O)c(CC=C(C)C)c(O)c4c(=O)c23)O1 (stereo unspecified) [MANGOSTENONE G] | 6.8 | – | 14.6 | – |
| COc1c(O)cc2oc3cc4c(c(O)c3c(=O)c2c1CC=C(C)C)CC(O)C(C)(C)O4 (stereo unspecified) [MANGOSTANOL] | 6.5 | – | 21.5 | – |
| CC(C)=CCc1c(O)c(CC=C(C)C)c2oc3c(O)ccc(O)c3c(=O)c2c1O [GARTANIN] | 3.6 | tde | 2.9 | 0.437 |
